EPA's ToxValDB 9.5
Values after ≈ are worked out from the molar mass of the structure shown. Values joined by “and” are separate entries in the source; they are usually repeats but may differ in a detail not shown here. Equal values may be shown once. Where a name gives a salt, the structure may show the parent alone.

Tests used:
[1] = tested on: Rattus norvegicus; settings: oral
[2] = tested on: Rattus norvegicus; settings: for LC50 / LD50: acute
[3] = subchronic, gavage, M, Sprague-Dawley, Clinical Observation: Salivation Clonic convulsion + Body Weight Changes: Body weight gain decrease + Food Consumption: decrease + Water …
[4] = short-term, duration: 28 days, gavage, F, Sprague-Dawley, Blood Chemistry: Glu decrease, ChE increase, BUN increase + Absolute Organ Weight: Thyroid increase(trend) + Relative Organ Weight: Thyroid …
[5] = short-term, duration: 28 days, gavage, M, Sprague-Dawley, Blood Chemistry: Glu decrease, ChE increase, BUN increase + Absolute Organ Weight: Thyroid increase(trend) + Relative Organ Weight: Thyroid …
[6] = reproduction developmental, duration: 7 days, oral, gavage, F, CD Strain from Charles River
[7] = reproduction developmental, duration: 24 weeks, inhalation, generation: F0
[8] = reproduction developmental, duration: 24 weeks, inhalation, generation: F1
[9] = reproduction developmental, duration: 10 days, oral, gavage, F
[10] = short-term, duration: 12 days, inhalation, F, Fischer 344
[11] = short-term, duration: 12 days, inhalation, M, Fischer 344
[12] = short-term, duration: 14 days, oral, gavage, F, Crj:CD(SD)
[13] = short-term, duration: 14 days, oral, gavage, M, Crj:CD(SD)
[14] = subchronic, duration: 13 weeks, inhalation, F, Fischer 344
[15] = subchronic, duration: 13 weeks, inhalation, M, Fischer 344

In the case of `Nc1ccccc1Cl` [2-Chloroaniline], the NOEL ([1]; subchronic, gavage, M/F, Fischer 344, Deaths + Clinical Observation: Tremors Wasting Bluish discoloration of genital and footpad regions + Body Weight Changes: decrease + …) is reported as < 10 mg/kg-day.
`NC(=O)c1cccnc1` [Niacinamide] was tested, and the NOAEL ([1]; short-term, duration: 28 days, gavage, M/F, Wistar, Body Weight Changes: decrease + Food Consumption: decrease + Blood Chemistry: AST increase, ALT increase, T-Cho increase, ALP increase, BUN …) was 215 mg/kg-day.
In the case of `CCC(C)(N)C#N` (stereo not given) [2-Amino-2-methyl-butyronitrile], the LC50 ([2]; inhalation, Crl:CD(SD) BR) is reported as 430 mg/m3 and 446 mg/m3 and 417 mg/m3 and the LD50 ([2]; oral, gavage, Sprague-Dawley) is reported as 74 mg/kg.
In the case of `CC(=O)OC1CCCCC1C(C)(C)C` (stereo not given) [2-tert-Butylcyclohexyl acetate], the NOAEL [1, 3] is reported as < 50 mg/kg-day and the NOEL [1, 3] is reported as < 50 mg/kg-day.
Compound `OCCCO` [1,3-Propanediol] has an LD50 ([2]; oral, gavage, Wistar) of 15.8 mg/kg.
With `C1C2CC3CC1CC(C2)C3` [Adamantane] the LOEL [1, 4] was 1000 mg/kg-day, the NOEL [1, 4] was 200 mg/kg-day and the LOEL [1, 5] was 40 mg/kg-day. The NOEL [1, 5] was < 40 mg/kg-day.
In the case of `CCCCCCCC/C=C\CCCCCCCC(=O)OC[C@@H](OC(=O)CCCCCCC/C=C\CCCCCCCC)[C@H]1OC[C@H](O)[C@H]1OC(=O)CCCCCCC/C=C\CCCCCCCC` [Sorbitan trioleate], the LD50 ([2]; oral, gavage, Wistar) is reported as > 39800 mg/kg.
`CC(C)CC(C)(C#N)N=NC(C)(C#N)CC(C)C` (stereo not given) [2,2'-Azobis[2,4-dimethylvaleronitrile]] was tested, and the NOEL ([1]; subchronic, gavage, M, Sprague-Dawley, Clinical Observation: Salivation + Blood Chemistry: gamma- GTP increase, TG decrease + Absolute Organ Weight: Liver increase, R + Relative …) was 10 mg/kg-day.
In the case of `NS(=O)(=O)c1cc(C(=O)O)c(NCc2ccco2)cc1Cl` [Furosemide], the NOEL ([1]; subchronic, duration: 13 weeks, diet, M/F, Fischer 344, Deaths + Clinical Observation: Diuresis Rough fur + Body Weight Changes: decrease + Food Consumption: decrease + Relative Organ Weight: …) is reported as < 60 mg/kg-day.
In the case of `CC(C)N.CCCCCCCCCC(CC)c1ccc(S(=O)(=O)O)cc1` (stereo not given) [Isopropylammonium dodecylbenzenesulfonate], the LD50 ([2]; oral) is reported as 1840 mg/kg and the LD50 ([2]; oral, gavage, Sprague-Dawley) is reported as 1300 mg/kg.
For `CC(C)(C)c1cc(C(=O)O)c(O)c(C(C)(C)C)c1` [Benzoic acid, 3,5-bis(1,1-dimethylethyl)-2-hydroxy-], the NOEL ([1]; subchronic, gavage, M, Sprague-Dawley, Blood Chemistry: ALT(GPT) increase, TG increase + Absolute Organ Weight: Liver increase + Relative Organ Weight: Liver increase) was 20 mg/kg-day.
Work on `C1=Cc2cccc3cccc1c23` [Acenaphthylene] yielded an NOEL ([1]; short-term, duration: 28 days, gavage, M/F, Crl:CD(SD), Deaths + Clinical Observation: Salivation, Rough coat, Wasting, Rearing cunut decrease + Functional Observational Battery: Forearm strength…) of 4 mg/kg-day.
For `C=CCOC(=O)c1ccccc1C(=O)OCC=C` [Diallyl phthalate], the NOEL ([1]; subchronic, duration: 13 weeks, gavage, M/F, Fischer 344, Deaths + Histopathology: Liver/periportal-Hepatocellular alteration Liver/periportal-Necrosis Liver/periportal-Fibrosis Liver/bile duct- …) was 25 mg/kg-day.
For `CCCCCOC(=O)c1c(Cl)c(Cl)cc(Cl)c1OC(=O)C(=O)Oc1c(Cl)cc(Cl)c(Cl)c1C(=O)OCCCCC` [Bis(2,4,5-trichloro-6-carbopentoxyphenyl) oxalate], the NOEL ([1]; short-term, duration: 28 days, gavage, M/F, Deaths + Clinical Observation: Salivation + Hematology: PT increase, APTT increase + Blood Chemistry: TP increase, ALB increase, TG …) was < 8 mg/kg-day.
In the case of `O=S(=O)([O-])CCO.[Na+]` [Sodium 2-hydroxyethanesulfonate], the LD50 ([2]; oral, gavage, Wistar) is reported as > 5000 mg/kg.
In the case of `NCCCCCCN` [1,6-Hexanediamine], the LC50 ([2]; inhalation, Crl) is reported as > 0.95 µg/mL, the LD50 ([2]; oral, gavage, Crl:CD(SD)) is reported as 1130 mg/kg and 792 mg/kg and the LOAEL ([2]; developmental, duration: 7 days, oral, gavage, CD Strain from Charles River) is reported as 184 mg/kg-day. It also gave an NOAEL ([2]; reproduction developmental, duration: 40 weeks, oral, diet, Charles River COBS CD, Portage Michigan) of 150 mg/kg-day, an LOAEL [2, 6] of 184 mg/kg-day and an NOAEL [2, 6] of 112 mg/kg-day. For the same compound, the NOAEL ([2]; subchronic, duration: 13 weeks, Inhalation, Crl:CD(SD)) was 12.8 mg/m3.
`COc1cc(NC(=O)C(N=Nc2ccc(-c3ccc(N=NC(C(C)=O)C(=O)Nc4cc(OC)c(Cl)cc4OC)c(Cl)c3)cc2Cl)C(C)=O)c(OC)cc1Cl` (stereo not given) [C.I. Pigment Yellow 83] was tested, and the LD50 ([2]; oral, gavage) was > 1750 mg/kg and the NOAEL ([2]; chronic, duration: 104 weeks, oral, gavage, Sprague-Dawley) was 630 mg/kg-day.
Compound `CCCCCCCCCCOC1CCS(=O)(=O)C1` (stereo not given) [Thiophene, 3-(decyloxy)tetrahydro-, 1,1-dioxide] has an NOAEL ([2]; short-term, duration: 28 days, oral, gavage, M, Sprague-Dawley) of 100 mg/kg-day.
In the case of `O=P(CCCl)(OCCCl)OCCCl` [Bis(2-chloroethyl) 2-chloroethylphosphonate], the LD50 ([2]; oral, gavage, Sprague-Dawley) is reported as 580 mg/kg and 810 mg/kg, the NOAEL ([2]; developmental, duration: 14 days, oral, gavage, Sprague-Dawley) is reported as ≤ 600 mg/kg-day and the NOAEL ([2]; reproduction developmental, duration: 14 days, oral, gavage, F, Sprague-Dawley) is reported as 400 mg/kg-day.
Compound `C1COCO1` [1,3-Dioxolane] has an LC50 ([2]; inhalation, Crl:CD1) of 68.4 µg/mL (≈ 923 µM), an LD50 ([2]; oral, gavage, Sprague-Dawley) of 5200 mg/kg and an LOAEL ([2]; developmental, duration: 10 days, oral, gavage) of 1000 mg/kg-day. For the same compound, the LOAEL [2, 7] was > 379 mg/m3, the NOAEL [2, 7] was 379 mg/m3 and the LOAEL [2, 8] was > 379 mg/m3. For the same compound, the NOAEL [2, 8] was 379 mg/m3, the LOAEL [2, 9] was 500 mg/kg-day and the NOAEL [2, 9] was 250 mg/kg-day. For the same compound, the LOAEL [2, 10] was 7030 mg/m3, the NOAEL [2, 10] was 1560 mg/m3 and the LOAEL [2, 11] was 7030 mg/m3. For the same compound, the NOAEL [2, 11] was 1560 mg/m3, the LOAEL [2, 12] was 250 mg/kg-day and the NOAEL [2, 12] was 75 mg/kg-day. The LOAEL [2, 13] was 250 mg/kg-day, the NOAEL [2, 13] was 75 mg/kg-day and the LOAEL [2, 14] was 3030 mg/m3. It also gave an NOAEL [2, 14] of 903 mg/m3, an LOAEL [2, 15] of 9120 mg/m3 and an NOAEL [2, 15] of 3030 mg/m3.
